According to US9675591B2, “Methods for treating seizure disorders and pain” (THE REGENTS OF THE UNIVERSITY OF CALIFORNIA, priority 2013, dated 2017):

Experiments:
hippocampal kindled rats = assay: Hippocampal kindled seizures; assay type: in vivo
Experimental: Bipolar electrodes were surgically implanted into the hippocampus of anesthetized rats, which were allowed to recover for one week. One week after the surgery, the rats were stimulated with suprathreshold trains of 200 μAmps for 10 sec, 50 Hz, every 30 min for 6 hours (12 stimulations per day) on alternate days (4 to 5 stimulus days) until they were fully kindled. One week later the effect of a single i.p. dose of test compound was assessed on behavioral seizure score (BSS) and afterdischarge duration (ADD). An initial group of kindled rats (n=6-8) were tested at 15, 45, 75, 105, 135, 165, and 195 min after drug administration. Results obtained at the various time points were compared with the last control stimulus delivered 15 minutes prior to drug administration. Thus, each animal serves as its own control. The BSS's were scored according to the following criteria: Stage 1—mouth and facial clonus; Stage 2—stage 1 plus head nodding; Stage 3—stage 2 plus forelimb clonus; Stage 4—stage 3 plus rearing; Stage 5—stage 4 plus repeated rearing and falling. The afterdischarge threshold (ADT) is measured in the kindled rat. […] The BSS and ADD for each dose were averaged at the TPE, the S.E.M. calculated, and the significance of the difference compared to control values determined. (Significant differences in BSS from control and treated groups are determined by the non-parametric Mann-Whitney U test).

6 Hz seizures = assay: 6 Hz seizure test, compounds given i.p. as solution; assay type: in vivo; conditions: Mus musculus, ip, 10 min, mice, values stated uncertain
Experimental: The mouse maximal electroshock (MES) and 6 Hz seizure models were used. Motor toxicity was assessed using a modification of the horizontal screen test. ED50 values in the seizure models and TD50 values in the toxicity test were determined by nonlinear fitting of dose-response curves. […] Drugs solutions were injected intraperitoneally 10 min prior to administration of the electrical stimulus in a volume of 10 ml/kg body weight.

Nc1nc2ccc(SC(F)(F)F)cc2s1 [SKA-19, 6-((trifluoromethyl)thio)benzo[d]thiazol-2-amine]
afterdischarge duration (ADD) (hippocampal kindled rats; 30 mg/kg i.p., two fully kindled rats): completely suppressed
seizure score after treatment (hippocampal kindled rats; 30 mg/kg i.p., two fully kindled rats, predrug score 4-5): 0
ED50 (hippocampal kindled rats; Rattus norvegicus, ip, 2 h): 5.47 mg/kg
toxicity in kindled rats (hippocampal kindled rats; highest dose 15 mg/kg): no evidence of toxicity
ED50 (6 Hz seizures): 22.5 mg/kg
